Data: US20020137929A1, “1 - (3-heterocyclylphenyl) isothiourea, -isourea, -guanidine and -amidine herbicidal agents” (Intellectual Property Department, BASF Aktiengesellschaft, priority 1998, published 2002)

Columns and labels:
CASOB (Sicklepod) = experiment: Preemergence herbicidal evaluation; assay type: in vivo, Cassia obtusifolia; conditions: rated 4-5 weeks after treatment
In short: (§1)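 Each species is sown separately in potting soil over roughly an inch of soil before any emergence. The soil surface then receives an aqueous acetone spray delivering about 0.0156 to 0.500 kg/ha of compound. After four to five weeks, injury is scored from 0 to 9 relative to a control.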

AMBEL (Ragweed, Common) [1] = experiment: Preemergence herbicidal evaluation; assay type: in vivo, Ambrosia artemisifolia; conditions: rated 4-5 weeks after treatment
In short: as §1

SETVI (Foxtail, Green) = experiment: Preemergence herbicidal evaluation; assay type: in vivo, Setaria viridis; conditions: rated 4-5 weeks after treatment
In short: as §1

AMBEL (Ragweed, Common) [2] = experiment: Postemergence herbicidal evaluation; assay type: in vivo, Ambrosia artemisifolia
In short: (§2)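 Young plants, roughly two weeks from seeding, receive the active ingredient as a sprayed dispersion (acetone/water 50/50, 0.5% TWEEN 20) at 40 psi. Doses span about 0.0156 to 0.500 kg/ha. A visual score from 0 to 9 compares treated with control plants four to five weeks on.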

[3] = test system: ECHORC (Watergrass (Calif.)); experiment: Postemergence weed control under flooded paddy conditions; assay type: in vivo, Echinochloa oryzoides; conditions: Rate 0.2500 kg/ha, postemergence weeds, rated 3 to 4 weeks after treatment
In short: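 Injury ratings (0–9 scale covering stand, vigor, malformation, size, chlorosis and overall appearance versus control) were made three to four weeks after treatment. Test material, about 0.0313 to 0.500 kg/ha a.i. in 50/50 v/v aqueous/acetone, was added to flood water 1.5 to 3 cm deep over 3 to 5 cm weeds and 1.5 to 2.5 leaf rice.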

[4] = test system: SAGPY (Arrowhead (Pygmaea)); experiment: Preemergence weed control under flooded paddy conditions; assay type: in vivo, Sagittaria pygmaea; conditions: 0.2500 kg/ha, rated 3-4 weeks after treatment
In short: (§3)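 Herbicidal effect is scored visually on a 0-9 scale against an untreated control, three to four weeks after compounds are pipetted into the flood water (1.5 to 3 cm deep) over seeds planted in silt loam at 0.5 cm depth. Rates: about 0.0313 to 0.500 kg/ha.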

[5] = test system: GLXMAW (Soybean, Williams); experiment: Preemergence herbicidal evaluation; assay type: in vivo, Glycine max, (L.) Merr. cv Williams; conditions: rated 4-5 weeks after treatment
In short: as §1

ABUTH (Velvetleaf) = experiment: Preemergence herbicidal evaluation; assay type: in vivo, Abutilon theophrasti; conditions: rated 4-5 weeks after treatment
In short: as §1

[6] = test system: GLXMAW (Soybean, Williams); experiment: Postemergence herbicidal evaluation; assay type: in vivo, Glycine max, (L.) Merr. cv Williams
In short: as §2

ZEAMX (Corn, Field) = experiment: Postemergence herbicidal evaluation; assay type: in vivo, Zea mays
In short: as §2

[7] = test system: IPOHE (Morningglory, Ivyleaf); experiment: Postemergence herbicidal evaluation; assay type: in vivo, Ipomoea hederacea
In short: as §2

CYPSE (Flatsedge) = experiment: Preemergence weed control under flooded paddy conditions; assay type: in vivo, Cyperus serotinus; conditions: 0.2500 kg/ha, rated 3-4 weeks after treatment
In short: as §3

GALAP (Galium) = experiment: Preemergence herbicidal evaluation; assay type: in vivo, Galium aparine; conditions: rated 4-5 weeks after treatment
In short: as §1

ECHCG (Barnyardgrass) = experiment: Preemergence herbicidal evaluation; assay type: in vivo, Echinochloa crus-galli; conditions: rated 4-5 weeks after treatment
In short: as §1

Cn1c(C(F)(F)F)cc(=O)n(-c2cc(/N=C3/SC(CC(=O)O)C(=O)N3CC(=O)O)c(Cl)cc2F)c1=O (centres unmarked) [Compound 61, 2-{{2-Chloro-5-[3,6-dihydro-3-methyl-2,6-dioxo-4-(trifluoromethyl)-1(2H)-pyrimidinyl]-4-fluorophenyl}imino}-4-oxo-3,5-thiazolidinediacetic acid]
1.0: Preemergence herbicidal rating CASOB (CASOB (Sicklepod); rate 0.2500 kg/ha) | Preemergence herbicidal rating SETVI (SETVI (Foxtail, Green); rate 0.2500 kg/ha) | Preemergence herbicidal rating GLXMAW ([5]; rate 0.2500 kg/ha) | Preemergence herbicidal rating ABUTH (ABUTH (Velvetleaf); rate 0.2500 kg/ha) | Postemergence herbicidal rating IPOHE ([7]; Rate 0.0158 kg/ha) | Postemergence herbicidal rating IPOHE ([7]; Rate 0.0630 kg/ha)
4.0: Postemergence herbicidal rating GLXMAW ([6]; Rate 0.0630 kg/ha)
2.0: Postemergence herbicidal rating GLXMAW ([6]; Rate 0.0158 kg/ha) | Postemergence herbicidal rating ZEAMX (ZEAMX (Corn, Field); Rate 0.0158 kg/ha) | Postemergence herbicidal rating ZEAMX (ZEAMX (Corn, Field); Rate 0.0315 kg/ha) | Postemergence herbicidal rating IPOHE ([7]; Rate 0.0315 kg/ha)
3.0: Postemergence herbicidal rating GLXMAW ([6]; Rate 0.0315 kg/ha) | Postemergence herbicidal rating ZEAMX (ZEAMX (Corn, Field); Rate 0.0630 kg/ha)
0.0: Preemergence herbicidal rating CASOB (CASOB (Sicklepod); rate 0.1250 kg/ha) | Preemergence herbicidal rating AMBEL (AMBEL (Ragweed, Common) [1]; rate 0.1250 kg/ha) | Preemergence herbicidal rating AMBEL (AMBEL (Ragweed, Common) [1]; rate 0.2500 kg/ha) | Preemergence herbicidal rating SETVI (SETVI (Foxtail, Green); rate 0.1250 kg/ha) | Postemergence herbicidal rating AMBEL (AMBEL (Ragweed, Common) [2]; Rate 0.0158 kg/ha) | Postemergence herbicidal rating AMBEL (AMBEL (Ragweed, Common) [2]; Rate 0.0315 kg/ha) | Postemergence herbicidal rating AMBEL (AMBEL (Ragweed, Common) [2]; Rate 0.0630 kg/ha) | Herbicidal rating ECHORC [3] | SAGPY herbicidal effect rating [4] | Preemergence herbicidal rating GLXMAW ([5]; rate 0.1250 kg/ha) | Preemergence herbicidal rating ABUTH (ABUTH (Velvetleaf); rate 0.1250 kg/ha) | CYPSE herbicidal effect rating (CYPSE (Flatsedge)) | Preemergence herbicidal rating GALAP (GALAP (Galium); rate 0.1250 kg/ha) | Preemergence herbicidal rating GALAP (GALAP (Galium); rate 0.2500 kg/ha) | Preemergence herbicidal rating ECHCG (ECHCG (Barnyardgrass); rate 0.1250 kg/ha) | Preemergence herbicidal rating ECHCG (ECHCG (Barnyardgrass); rate 0.2500 kg/ha)
